# Article PMC7582737, “Melanocortin Receptor 4 (MC4R) Signaling System in Nile Tilapia” (International Journal of Molecular Sciences, 2020)
# Legend:
# [1] = test system: MC4R; set-up: method as in PMID 24085819, PMID 31398355, PMID 31299224, PMID 32922362; details: mammalian peptides; cited from earlier work
# [2] = test system: tilapia MC4R + MRAP2b; details: HEK293 cells; cited from earlier work
# From the text: The presence of all MC4R signaling components in tilapia led us to further examine their interaction in vitro. […] Our finding partly agrees with recent findings in spotted gar, tilapia, topmouth culter, and zebrafish, showing that MC4R could be activated by mam ...
# [3] = test system: goldfish; details: cited from earlier work
# From the text: In the brain, all genes were detected to be highly or moderately expressed. This finding is consistent with previous reports in teleosts, such as zebrafish and medaka, in which all the genes are expressed in the brain as detected by qRT-PCR assays.
# [4] = test system: rainbow trout; details: cited from earlier work
# [5] = test system: zebrafish; details: ip/icv injection of MC4R agonist; cited from earlier work
# [6] = biological target: tilapia melanocortin receptor 4 (MC4R), N-terminally 3xFlag-tagged (Nile tilapia (Oreochromis niloticus))
# [7] = biological target: tilapia melanocortin receptor 4 (MC4R), N-terminally 3xFlag-tagged (Nile tilapia (Oreochromis niloticus)); remark: listed apart in the source
# [8] = ip/icv injection of MC4R agonist
Molecule,"activation of MC4R, relative potency (in words) [1]",EC50 of activating the cAMP/PKA signaling pathway (pGL3-CRE-luciferase reporter) in CHO cells expressing tilapia MC4R in the presence of MRAP2b [7] [nM],"EC50 of activating the cAMP/PKA signaling pathway (pGL3-CRE-luciferase reporter) in CHO cells expressing tilapia MC4R, without MRAP2b [7] [nM]",further results
ACTH1-24: mammalian ACTH1-24 (cited),with similar potencies,,,
ACTH1-39,with similar potencies,,,effect of MRAP2b on EC50 value in activating tilapia MC4R [2]: cannot significantly alter the EC50 value
HS024,,,,"effect on food intake, goldfish ([3]; injection of MC4R antagonist): stimulate food intake; effect on food intake, rainbow trout ([4]; injection of MC4R antagonist): stimulate food intake"
MTII,,,,"effect on feeding, goldfish [3, 8]: reduce the feeding; effect on feeding, zebrafish [5]: reduce the feeding; effect on feeding, rainbow trouts [4, 8]: reduce the feeding"
NDP-α-MSH,with similar potencies,,,
"tilapia melanocortin-2 receptor accessory protein 2b (MRAP2b), N-terminally Myc-tagged (natural protein)",,,,"sensitivity and selectivity of MC4R for ACTH(1-40) with MRAP2b co-expressed, against MC4R alone (EC50 0.246 nM vs. 0.032 nM; pGL3-CRE-luciferase reporter, CHO cells) [6]: 8 fold"
DGSYKMKHFRWSGPPAS [tilapia β-MSH (derived from the POMCa1 precursor)],,0.572,0.421,
Ac-SYSMEHFRWGKPV-NH2 [tilapia α-MSH (acetyl-α-MSH with an amidated C-terminus; derived from the POMCa1 precursor)],,0.786,0.955,
SYSMEHFRWGKPVGRKRRPVKVYTSNGVAEESAEVFPEEM [tilapia ACTH(1-40) (derived from the POMCa1 precursor)],,0.032,0.246,
